# What was measured:
# [1] = system: Wnt activity (Sp5-Luc reporter, Wnt-responsive promoter) in SW480 colon carcinoma cells; assay: Wnt activity screening assay: Sp5-Luc reporter gene assay in SW480 cells; type: cell-based; details: Homo sapiens; for inhibition at 10 µM: read-out: percent inhibition at 10 μM (given for EC50 of >10 μM); for EC50: overnight incubation, 10-point curve starting from 10 μM
# How it was run: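 Wnt-driven firefly luciferase in SW480 colon carcinoma cells reports pathway activity after overnight compound exposure (10 μM top concentration, 3-fold steps). Signal is normalized to DMSO controls.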
# [2] = system: primary human mesenchymal stem cells (hMSCs); assay: Induction of chondrogenesis in human mesenchymal stem cells (nodule staining with Rhodamine B / Nile Red); type: cell-based; details: for Emax: TGF-β3 (10 ng/mL) as positive control, read-out: Max. Activity as % TGF-β3 activity; for EC50: concentration required to induce 50% levels of chondrogenesis vs TGF-β3, read-out: Conc (nM) of 50% TGF-β3 activity
# Procedure: Representative compounds were screened using primary human mesenchymal stem cells (hMSCs) to determine their ability to induce chondrogenesis (process by which cartilage is developed).
# Human Mesenchymal Stem Cell Culture: Primary human mesenchymal stem cells (hMSCs) were purchased from Lonza (Walkersville, Md.) and expanded in Mesenchymal Stem Cell Growth Media (Lonza). Cells between passage 3 and 6 were used for the experiments.
# Compound Screening: Each compound was dissolved in DMSO as a 10 mM stock and used to prepare compound source plates. For the 96 well assay, serial dilution (1:3, 6-point dose-response curves from 2700 nM to 10 nM) and compound transfer was performed using the ECHO 550 (Labcyte, Sunnyvale, Calif.) into 96-well clear bottom assay plates (Greiner Bio-One) with appropriate DMSO backfill for a final DMSO concentration of 0.03%. hMSCs were plated at 20,000 cells/well in 250 μL/well Incomplete Chondrogenic Induction Medium (Lonza; DMEM, dexamethasone, ascorbate, insulin-transferrin-selenium [ITS supplement], gentamycin-amphotericin [GA-1000], sodium pyruvate, proline and L-glutamine). TGF-β3 (10 ng/mL) was used as a positive control for differentiation while negative control wells were treated with 75 nL DMSO for normalization and calculating EC50 values. For the 384 well assay, serial dilution (1:3, 8-point dose-response curves from 5000 nM to 2.2 nM) and compound transfer was performed using the ECHO 550 (Labcyte, Sunnyvale, Calif.) into 384-well clear bottom assay plates (Greiner Bio-One) with appropriate DMSO backfill for a final DMSO concentration of 0.03%. hMSCs were plated at 8,000 cells/well in 80 μL/well Incomplete Chondrogenic Induction Medium (Lonza; DMEM, dexamethasone, ascorbate, insulin-transferrin-selenium [ITS supplement], gentamycin-amphotericin [GA-1000], sodium pyruvate, proline and L-glutamine). TGF-β3 (10 ng/mL) was used as a positive control for differentiation while negative control wells were treated with 25 nL DMSO for normalization and calculating EC50 values. Cells were incubated at 37° C. and 5% CO2 for 6 days. To image chondrogenic nodules, the cells were fixed using 4% formaldehyde (Electron Microscopy Sciences), and stained with 2 μg/mL Rhodamine B (Sigma-Aldrich) and 20 μM Nile Red (Sigma-Aldrich) [Johnson K., et. al, A Stem Cell-Based Approach to Cartilage Repair, Science, (2012), 336(6082), 717-721]. The nodules imaged (25 images per well for 96 well plates and 9 images per well for 384 well plates at 10× magnification) by excitation at 531 nm and emission at 625 nm and quantified using the CellInsight CX5 (Thermo Scientific). Area of nodules in each well was normalized to the average of 3 DMSO treated wells on the same plate using Excel (Microsoft Inc.). The normalized averages (fold change over DMSO) of 2 or 3 replicate wells for each compound concentration were calculated. Due to solubility limitations of some of the compounds, curve fitting was incomplete leading to inaccurate EC50 determinations.
# Using TGF-β3 as a positive control, the concentration of representative compounds required to induce 50% levels of chondrogenesis is reported. In addition, the maximum activity of each compound and the respective dose that each compound reached maximum chondrogenesis activity is reported.
SMILES,inhibition at 10 µM [1] [%],EC50 [1] [µM],Emax [2] [%],EC50 [2] [nM]
"Fc1cccc(-c2cccc3[nH]c(-c4n[nH]c5ccc(-c6cn[nH]c6)nc45)nc23)c1 [Compound 507, 3-(4-(3-Fluorophenyl)-1H-benzo[d]imidazol-2-yl)-5-(1H-pyrazol-4-yl)-1H-pyrazolo[4,3-b]pyridine]",36,> 10,53,
"Fc1cccc(-c2cccc3[nH]c(-c4n[nH]c5ccc(-c6cnccn6)nc45)nc23)c1 [Compound 520, 3-(4-(3-Fluorophenyl)-1H-benzo[d]imidazol-2-yl)-5-(pyrazin-2-yl)-1H-pyrazolo[4,3-b]pyridine]",26,> 10,64,2
"CN(C)CCOc1cncc(-c2ccc3[nH]nc(-c4nc5c(-c6cccs6)cccc5[nH]4)c3n2)c1 [Compound 707, N,N-Dimethyl-2-((5-(3-(4-(thiophen-2-yl)-1H-benzo[d]imidazol-2-yl)-1H-pyrazolo[4,3-b]pyridin-5-yl)pyridin-3-yl)oxy)ethan-1-amine]",,4.19,142,10
"CN(C)CC(=O)Nc1cncc(-c2ccc3[nH]nc(-c4nc5c(-c6cccc(F)c6)cccc5[nH]4)c3n2)c1 [Compound 969, 2-(Dimethylamino)-N-(5-(3-(4-(3-fluorophenyl)-1H-benzo[d]imidazol-2-yl)-1H-pyrazolo[4,3-b]pyridin-5-yl)pyridin-3-yl)acetamide]",,3.99,44,
"COc1cccc(-c2cccc3[nH]c(-c4n[nH]c5ccc(-c6cccnc6)nc45)nc23)c1 [Compound 994, 3-(4-(3-Methoxyphenyl)-1H-benzo[d]imidazol-2-yl)-5-(pyridin-3-yl)-1H-pyrazolo[4,3-b]pyridine]",,4.61,70,100
"COc1cccc(-c2cccc3[nH]c(-c4n[nH]c5ccc(-c6cncc(NC(=O)Cc7ccccc7)c6)nc45)nc23)c1 [Compound 1000, N-(5-(3-(4-(3-Methoxyphenyl)-1H-benzo[d]imidazol-2-yl)-1H-pyrazolo[4,3-b]pyridin-5-yl)pyridin-3-yl)-2-phenylacetamide]",,3.25,50,900
"CC(C)CC(=O)Nc1cncc(-c2ccc3[nH]nc(-c4nc5c(-c6ccc(Cl)s6)cccc5[nH]4)c3n2)c1 [Compound 1037, N-(5-(3-(4-(5-Chlorothiophen-2-yl)-1H-benzo[d]imidazol-2-yl)-1H-pyrazolo [4,3-b]pyridin-5-yl)pyridin-3-yl)-3-methylbutanamide]",,1.9,56,10
"CC(C)(C)C(=O)Nc1cncc(-c2ccc3[nH]nc(-c4nc5c(-c6ccc(Cl)s6)cccc5[nH]4)c3n2)c1 [Compound 1043, N-(5-(3-(4-(5-chlorothiophen-2-yl)-1H-benzo[d]imidazol-2-yl)-1H-pyrazolo[4,3-b]pyridin-5-yl)pyridin-3-yl)pivalamide]",,1.31,65,10
"Clc1ccc(-c2cccc3[nH]c(-c4n[nH]c5ccc(-c6cncc(CN7CCCC7)c6)nc45)nc23)s1 [Compound 1049, 3-(4-(5-Chlorothiophen-2-yl)-1H-benzo[d]imidazol-2-yl)-5-(5-(pyrrolidin-1-ylmethyl)pyridin-3-yl)-1H-pyrazolo[4,3-b]pyridine]",,1.25,408,
"O=C(Nc1cncc(-c2ccc3[nH]nc(-c4nc5c(-c6ccc(Cl)s6)cccc5[nH]4)c3n2)c1)C1CCC1 [Compound 1056, N-(5-(3-(4-(5-Chlorothiophen-2-yl)-1H-benzo[d]imidazol-2-yl)-1H-pyrazolo [4,3-b]pyridin-5-yl)pyridin-3-yl)cyclobutanecarboxamide]",,3.3,100,10
"O=C(Nc1cncc(-c2ccc3[nH]nc(-c4nc5c(-c6ccccc6F)cccc5[nH]4)c3n2)c1)C(F)(F)F [Compound 1126, 2,2,2-Trifluoro-N-(5-(3-(4-(2-fluorophenyl)-1H-benzo[d]imidazol-2-yl)-1H-pyrazolo[4,3-b]pyridin-5-yl)pyridin-3-yl)acetamide]",,0.892,40,
"CN1CCN(c2cccc3[nH]c(-c4n[nH]c5ccc(-c6cncc(NC(=O)C(F)(F)F)c6)nc45)nc23)CC1 [Compound 1127, 2,2,2-Trifluoro-N-(5-(3-(4-(4-methylpiperazin-1-yl)-1H-benzo[d]imidazol-2-yl)-1H-pyrazolo[4,3-b]pyridin-5-yl)pyridin-3-yl)acetamide]",,3.99,51,30

# From patent US10392383B2, “3-(1H-benzo[d]imidazol-2-yl)-1H-pyrazolo[4,3-b]pyridines and therapeutic uses thereof” (Samumed, LLC, priority 2015, dated 2019)
